Our source for the MIC and ED50 values is patent publication US4371532A, “Malonamidooxadethiacephem compounds” (Shionogi & Co., Ltd., priority 1980, dated 1983).

A word on the MIC: it is the lowest concentration that inhibits growth of the organism. In general, ED50 refers to the dose at which the effect has come halfway, by size or by number of responders. Low readings indicate an effect at a small dose, high ones a need for a large dose.

One experiment relates to Escherichia coli EC-14. The experiment can be described thus: Minimal inhibitory concentration in vitro by serial dilution method on Mueller Hinton agar. The class given is cell-based. To be noted: disodium salts (10), E. coli EC-14, Mueller Hinton agar.
The test system of a further experiment is P. aeruginosa PS-24. The experiment can be described thus: Protection of mice from infection caused by Pseudomonas aeruginosa PS-24. It is filed as in vivo. To be noted: PS24, ip, inoculation = 1 × 10^4, two subc. inj. (mg/kg each) 1 and 5 hrs after intraperitoneal inoculation. How it is done:
Five representative compounds in the preceding examples are assayed for protection of mice from infection caused by Pseudomonas aeruginosa to give the effects as in the following table. | two subc. inj. (given mg/kg each) 1 and 5 | hrs after intraperitoneal inoculation | **inoculation = 1 × 10^4

A further experiment relates to P. aeruginosa CN-5. The experiment in a line: Protection of mice from infection caused by Pseudomonas aeruginosa CN-5. It is filed as in vivo. Conditions: CN5, ip, inoculation = 7 × 10^3, two subc. inj. (mg/kg each) 1 and 5 hrs after intraperitoneal inoculation. The procedure:
Five representative compounds in the preceding examples are assayed for protection of mice from infection caused by Pseudomonas aeruginosa to give the effects as in the following table. | two subc. inj. (given mg/kg each) 1 and 5 | hrs after intraperitoneal inoculation | *inoculation = 7 × 10^3 -

For `COC1(NC(=O)C(C)C(=O)O)C(=O)N2C(C(=O)O)=C(CSc3nncs3)COC21` (centres unmarked) [Het=Tdz No. 1], the MIC in the experiment on Escherichia coli EC-14 (EC14, Het=Tdz) worked out at 0.39 µg/mL.
The same measure, in the same setting: the figure for `CCC(C(=O)O)C(=O)NC1(OC)C(=O)N2C(C(=O)O)=C(CSc3nncs3)COC21` (centres unmarked) [Het=Tdz No. 2] is 0.2 µg/mL; for `CCCC(C(=O)O)C(=O)NC1(OC)C(=O)N2C(C(=O)O)=C(CSc3nncs3)COC21` (centres unmarked) [Het=Tdz No. 3] it is 0.2 µg/mL; for `CCCCC(C(=O)O)C(=O)NC1(OC)C(=O)N2C(C(=O)O)=C(CSc3nncs3)COC21` (centres unmarked) [Het=Tdz No. 4] it is 0.39 µg/mL.
Take `C=CCC(C(=O)O)C(=O)NC1(OC)C(=O)N2C(C(=O)O)=C(CSc3nncs3)COC21` (centres unmarked) [Het=Tdz No. 5]: the MIC in the experiment with Escherichia coli EC-14 (EC14, Het=Tdz) amounted to 0.39 µg/mL.
Take `COC1(NC(=O)CC(=O)O)C(=O)N2C(C(=O)O)=C(CSc3nnnn3C)COC21` (centres unmarked) [Het=Tetr No. 1]: in the experiment on Escherichia coli EC-14 (EC14, Het=Tetr), the MIC stood at 1.56 µg/mL.
The same measure, in the same setting: the figure for `COC1(NC(=O)C(C)C(=O)O)C(=O)N2C(C(=O)O)=C(CSc3nnnn3C)COC21` (centres unmarked) [Het=Tetr No. 2] is 0.2 µg/mL; for `CCC(C(=O)O)C(=O)NC1(OC)C(=O)N2C(C(=O)O)=C(CSc3nnnn3C)COC21` (centres unmarked) [Het=Tetr No. 3] it is 0.1 µg/mL; for `COC1(NC(=O)C(C(=O)O)C(C)C)C(=O)N2C(C(=O)O)=C(CSc3nnnn3C)COC21` (centres unmarked) [Het=Tetr No. 5] it is 0.39 µg/mL.
For the compound `COC1(NC(=O)C(CC(C)C)C(=O)O)C(=O)N2C(C(=O)O)=C(CSc3nnnn3C)COC21` (centres unmarked) [Het=Tetr No. 6], the MIC with Escherichia coli EC-14 (EC14, Het=Tetr) came to 0.39 µg/mL.
Take `CCCCCCC(C(=O)O)C(=O)NC1(OC)C(=O)N2C(C(=O)O)=C(CSc3nnnn3C)COC21` (centres unmarked) [Het=Tetr No. 7]: the MIC in the experiment on Escherichia coli EC-14 (EC14, Het=Tetr) amounted to 12.5 µg/mL.
On to `C=CCC(C(=O)O)C(=O)NC1(OC)C(=O)N2C(C(=O)O)=C(CSc3nnnn3C)COC21` (centres unmarked) [Het=Tetr No. 8], for which the MIC in the experiment with Escherichia coli EC-14 (EC14, Het=Tetr) was 0.2 µg/mL.
Turning to `CCCC(C(=O)O)C(=O)NC1(OC)C(=O)N2C(C(=O)O)=C(CSc3nnnn3C)COC21` (centres unmarked) [Het=Tetr R=n-C3 H7], in the experiment on Escherichia coli EC-14 (EC14, Het=Tetr), the MIC came to 0.1 µg/mL.
On to `COC1(NC(=O)C(C(=O)O)c2ccc(O)cc2)C(=O)N2C(C(=O)O)=C(CSc3nnnn3C)COC21` (centres unmarked) [Reference, reference compound], for which the values for the ED50 in the experiment on P. aeruginosa PS-24 and with P. aeruginosa CN-5 were 20.4 mg/kg and 44.5 mg/kg, respectively.
On the same counts, the results for `COC1(NC(=O)C(C)C(=O)O)C(=O)N2C(C(=O)O)=C(CSc3nnnn3C)COC21` (centres unmarked) [compound 1] are 11.1 mg/kg and 22.3 mg/kg.
The like results for `CCC(C(=O)O)C(=O)NC1(OC)C(=O)N2C(C(=O)O)=C(CSc3nnnn3C)COC21` (centres unmarked) [compound 2] were, in that order, 17.7 mg/kg and 22.2 mg/kg.
As for `COC1(NC(=O)C(C)C(=O)O)C(=O)N2C(C(=O)O)=C(CSc3nncs3)COC21` (centres unmarked) [compound 3], the ED50 was 12.6 mg/kg in the experiment on P. aeruginosa PS-24 and 33.8 mg/kg in the experiment with P. aeruginosa CN-5.
In the case of `CCC(C(=O)O)C(=O)NC1(OC)C(=O)N2C(C(=O)O)=C(CSc3nncs3)COC21` (centres unmarked) [compound 4], the ED50 with P. aeruginosa PS-24 came out at 15.5 mg/kg; in the experiment on P. aeruginosa CN-5 it was 32.5 mg/kg.
